# Data: ChEMBL document CHEMBL4359925, “Rational discovery of a highly novel and selective mTOR inhibitor” (Bioorg Med Chem Lett, 2019)
# Activity calls are given as the source filed them. The rule behind the calls is not given here.
# What was measured:
# [1] = tested on: MCF7; experiment: Antiproliferative activity against human MCF7; type: functional, cell-based
# [2] = Cmax in rat at 3 mg/kg, po; type: ADME, organism-based; set-up: dose 3 mg/kg, route oral; details: in vivo
# [3] = Half-life in mouse at 10.4 mg/kg, iv; type: ADME, organism-based; details: in vivo
# [4] = Half-life in dog at 0.45 mg/kg, po; type: ADME, organism-based, Canis lupus familiaris; details: in vivo
# [5] = tested on: NCI-H929; experiment: Antiproliferative activity against human NCI-H929 cells; type: functional, cell-based
# [6] = tested on: NCI-H1395; experiment: Additive antiproliferative activity against human NCI-H1395 cells harboring BRAF G469A in presence of gemcitabine; type: functional, cell-based
# [7] = Tmax in rat at 93 mg/kg, po; type: ADME, organism-based; details: in vivo
# [8] = Cmax in mouse at 26 mg/kg, po; type: ADME, organism-based; set-up: dose 26 mg/kg, route oral; details: in vivo
# [9] = Half-life in dog at 10 mg/kg, po; type: ADME, organism-based, Canis lupus familiaris; details: in vivo
# [10] = Cmax in rat at 93 mg/kg, po; type: ADME, organism-based; set-up: dose 93 mg/kg, route oral; details: in vivo
# [11] = tested on: NCI-H1395; experiment: Additive antiproliferative activity against human NCI-H1395 cells harboring LKB1 mutant in presence of gemcitabine; type: functional, cell-based
# [12] = tested on: 786-0; experiment: Antitumour activity against human 786-O cells in xenograft model assessed as tumour growth inhibition at 30 mg/kg, qd; type: functional, organism-based
# [13] = Half-life in rat at 93 mg/kg, po; type: ADME, organism-based; details: in vivo
# [14] = Cmax in rat at 0.8 mg/kg, iv; type: ADME, organism-based; set-up: dose 0.8 mg/kg, route intravenous; details: in vivo
# [15] = tested on: NCI-H1650; experiment: Antiproliferative activity against human NCI-H1650 cells; type: functional, cell-based
# [16] = Clearance in rat at 0.8 mg/kg, iv; type: ADME, organism-based; details: in vivo
# [17] = Half-life in mouse at 2.8 mg/kg, iv; type: ADME, organism-based; details: in vivo
# [18] = Tmax in rat at 95 mg/kg, po; type: ADME, organism-based; details: in vivo
# [19] = Cmax in dog at 10 mg/kg, po; type: ADME, organism-based, Canis lupus familiaris; set-up: dose 10 mg/kg, route oral; details: in vivo
# [20] = Cmax in mouse at 10.4 mg/kg, iv; type: ADME, organism-based; set-up: dose 10.4 mg/kg, route intravenous; details: in vivo
# [21] = target: Serine/threonine-protein kinase mTOR (Homo sapiens, UniProt P42345); experiment: Inhibition of human mTOR measured after 30 mins in presence of ATP by Lanthascreen TR-FRET assay
# [22] = tested on: NCI-H460; experiment: Synergistic antiproliferative activity against human H460 cells harboring LKB1 mutant in presence of erlotinib; type: functional, cell-based
# [23] = tested on: BXPC-3; experiment: Antiproliferative activity against human BxPC3 cells; type: functional, cell-based
# [24] = Cmax in rat at 4.9 mg/kg, po; type: ADME, organism-based; set-up: dose 4.9 mg/kg, route oral; details: in vivo
# [25] = Tmax in dog at 10 mg/kg, po; type: ADME, organism-based, Canis lupus familiaris; details: in vivo
# [26] = Tmax in rat at 4.1 mg/kg, po; type: ADME, organism-based; details: in vivo
# [27] = Clearance in mouse at 2.8 mg/kg, iv; type: ADME, organism-based; details: in vivo
# [28] = Tmax in mouse at 26 mg/kg, po; type: ADME, organism-based; details: in vivo
# [29] = Cmax in rat at 4.1 mg/kg, po; type: ADME, organism-based; set-up: dose 4.1 mg/kg, route oral; details: in vivo
# [30] = tested on: A498; experiment: Antiproliferative activity against human A498; type: functional, cell-based
# [31] = Half-life in mouse at 26 mg/kg, po; type: ADME, organism-based; details: in vivo
# [32] = Tmax in rat at 100 mg/kg, po; type: ADME, organism-based; details: in vivo
# [33] = tested on: A549; experiment: Synergistic antiproliferative activity against human A549 cells harboring KRAS G12S mutant in presence of erlotinib; type: functional, cell-based
# [34] = tested on: MIA PaCa-2; experiment: Antiproliferative activity against human MIAPaCa2 cells; type: functional, cell-based
# [35] = Tmax in mouse at 8.7 mg/kg, po; type: ADME, organism-based; details: in vivo
# [36] = Volume of distribution at steady state in rat at 0.8 mg/kg, iv; type: ADME, organism-based; details: in vivo, read-out: Vdss
# [37] = Cmax in rat at 160 mg/kg, po; type: ADME, organism-based; set-up: dose 160 mg/kg, route oral; details: in vivo
# [38] = tested on: A549; experiment: Synergistic antiproliferative activity against human A549 cells harboring LKB1 mutant in presence of gemcitabine; type: functional, cell-based
# [39] = Cmax in rat at 95 mg/kg, po; type: ADME, organism-based; set-up: dose 95 mg/kg, route oral; details: in vivo
# [40] = target: Phosphatidylinositol 4,5-bisphosphate 3-kinase catalytic subunit alpha isoform (Homo sapiens, UniProt P42336); experiment: Inhibition of PI3K alpha (unknown origin)
# Sequence of Phosphatidylinositol 4,5-bisphosphate 3-kinase catalytic subunit alpha isoform (P42336 whole entry, canonical isoform): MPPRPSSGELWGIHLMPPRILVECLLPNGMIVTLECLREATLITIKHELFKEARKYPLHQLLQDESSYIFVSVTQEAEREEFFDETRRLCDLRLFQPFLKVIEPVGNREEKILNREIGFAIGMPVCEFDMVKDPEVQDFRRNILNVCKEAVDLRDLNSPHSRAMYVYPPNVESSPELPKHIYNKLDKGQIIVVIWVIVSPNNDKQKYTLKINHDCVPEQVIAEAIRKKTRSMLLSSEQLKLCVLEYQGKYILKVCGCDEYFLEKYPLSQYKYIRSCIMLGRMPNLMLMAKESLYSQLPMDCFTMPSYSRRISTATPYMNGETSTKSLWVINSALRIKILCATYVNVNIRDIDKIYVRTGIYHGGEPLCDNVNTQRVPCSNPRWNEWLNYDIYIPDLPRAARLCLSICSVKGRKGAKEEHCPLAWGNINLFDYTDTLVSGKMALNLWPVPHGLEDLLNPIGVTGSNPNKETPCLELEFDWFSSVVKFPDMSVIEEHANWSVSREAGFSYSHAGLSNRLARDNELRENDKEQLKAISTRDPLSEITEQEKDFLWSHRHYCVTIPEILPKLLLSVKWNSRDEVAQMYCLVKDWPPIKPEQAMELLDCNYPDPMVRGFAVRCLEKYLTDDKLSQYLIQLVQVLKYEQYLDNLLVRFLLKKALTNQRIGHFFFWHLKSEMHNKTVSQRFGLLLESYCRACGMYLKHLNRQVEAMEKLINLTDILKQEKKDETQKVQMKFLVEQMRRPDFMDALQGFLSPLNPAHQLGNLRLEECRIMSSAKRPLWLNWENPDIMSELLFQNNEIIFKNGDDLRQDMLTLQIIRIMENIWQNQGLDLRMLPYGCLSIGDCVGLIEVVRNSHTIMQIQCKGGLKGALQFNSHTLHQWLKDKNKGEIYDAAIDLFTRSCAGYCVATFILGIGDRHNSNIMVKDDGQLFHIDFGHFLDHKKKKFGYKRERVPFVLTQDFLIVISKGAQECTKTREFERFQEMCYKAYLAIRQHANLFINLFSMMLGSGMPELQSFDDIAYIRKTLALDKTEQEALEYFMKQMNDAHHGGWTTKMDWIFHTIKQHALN
# [41] = tested on: A2780; experiment: Antiproliferative activity against human A2780; type: functional, cell-based
# [42] = tested on: NCI-H460; experiment: Synergistic antiproliferative activity against human H460 cells harboring KRAS […] mutant in presence of erlotinib
# [43] = Clearance in mouse at 10.4 mg/kg, iv; type: ADME, organism-based; details: in vivo
# [44] = Tmax in dog at 0.45 mg/kg, po; type: ADME, organism-based, Canis lupus familiaris; details: in vivo
# [45] = tested on: HT-29; experiment: Antiproliferative activity against human HT-29; type: functional, cell-based
# [46] = Tmax in rat at 160 mg/kg, po; type: ADME, organism-based; details: in vivo
# [47] = tested on: BT-474; experiment: Antiproliferative activity against human BT474; type: functional, cell-based
compound,measurement,setting,value
CC(F)(F)CN1C(=O)[C@]2(C)COCCN2c2nc(-c3ccc(NC(=O)NC4CC4)cc3)ncc21,Activity,[1],Active
same,Cmax,[2],176 ng/mL
same,half-life,[3],2 h
same,half-life,[4],10.3 h
same,Activity,[5],Active
same,Activity,[6],Active
same,Tmax,[7],8.7 h
same,Cmax,[8],11100 ng/mL
same,half-life,[9],9.9 h
same,Cmax,[10],7220 ng/mL
same,Activity,[11],Active
same,TGI,[12],Active
same,half-life,[13],23.4 h
same,Cmax,[14],873 ng/mL
same,Activity,[15],Active
same,clearance,[16],6.9 mL/min/kg
same,half-life,[17],2.7 h
same,Tmax,[18],13.3 h
same,Cmax,[19],549 ng/mL
same,Cmax,[20],17700 ng/mL
same,IC50,[21],12.6 nM
same,Activity,[22],Active
same,Activity,[23],Active
same,Cmax,[24],1190 ng/mL
same,Tmax,[25],10.7 h
same,Tmax,[26],4 h
same,clearance,[27],8.5 mL/min/kg
same,Tmax,[28],6 h
same,Cmax,[29],150 ng/mL
same,Activity,[30],Active
same,half-life,[31],9.2 h
same,Tmax,[32],4.7 to 14.7 h
same,Activity,[33],Active
same,Activity,[34],Active
same,Tmax,[35],4 h
same,Vd,[36],0.951 L/kg
same,Cmax,[37],7700 ng/mL
same,Activity,[38],Active
same,Cmax,[39],2610 ng/mL
same,IC50,[40],1260 nM
same,Activity,[41],Active
same,Activity,[42],Active
same,clearance,[43],4 mL/min/kg
same,Tmax,[44],4 h
same,Activity,[45],Active
same,Tmax,[46],10 h
same,Activity,[47],Active
